{"source": "paper PMC5712521", "about": "“Dendrogenin A drives LXR to trigger lethal autophagy in cancers” (Nature Communications, 2017)", "key": {"in vivo": {"experiment": "in vivo", "set-up": "species or system NSG mice", "conditions": "mouse, 20 mg/kg", "description": "Administration R oute p.o. i. p. i. v.\nT 1/2 distribution (h) - - 0.11*** […]\nBars represent S.E.M. ( ***P<0.001, **P<0.01, t test).\n(also on this page, place not known: plasma times treatment mice administration plasma times treatment mice administration mg/kg mg/kg Summary pharmacokinetic parameters mice. were measured daily administration mg/kg days. (***P<0.001, mg/kg DDA in plasma (p.o.) (p.o.) DDA in plasma (µM) i.p. i.v. (mg/kg) 20 T1/2 0.1 T1/2 elimination 1.0 T1/2 - Bioavailability (%EP) (µM) 370 Tmax 0.002 marrow 0.01 0.1 1 10 Control DDA DDA level (µM) ***)"}, "AML cells": {"tested_on": "AML cells", "experiment": "Immunoblot of caspase-3 and PARP in AML cells", "type": "cell-based, human", "conditions": "24 h", "description": "Immunoblotting was carried out as described previously. Proteins were separated on SDS-PAGE gels, electro-transferred onto polyvinylidene difluoride membranes and incubated overnight at 4 °C with the following antibodies: anti-Atg3, anti-Atg5 (D1G9), anti-Atg7 (D12B11), anti-Beclin (D40C5), anti-caspase-3 (Cell Signaling), anti-Bcl-2 (Millipore), anti-Bax (Millipore), anti-LC3 (Sigma-Aldrich), anti-LXRα (SantaCruz), anti-LXRβ (SantaCruz), anti-Nur77 (Active motif), anti-NOR1 (R&D systems), anti-PARP (Cell Signaling), anti-Vps34 (Cell Signaling), or anti-Actin (Millipore). For visualization, an ECL plus kit (Amersham Biosciences) was used, and chemiluminescence was measured by autoradiography (Supplementary Fig. 9). Specific bands were quantified with ImageQuant software.\nSupplementary Fig. 6. […]\nAML cells treated with DDA for 24 h in the absence or presence of 50 µM z- VAD-fmk (a\ncaspase inhibitor). j Effect of z-VAD-fmk on DDA-induced c ytotox icit y in KG1 and HL60 cells. […]\nImages are\nrepresentative of 3 independent experim ents."}, "[1]": {"biological_target": "T1, human liver-X-receptor LXRα (Homo sapiens, UniProt Q13133)", "T1 construct": "expressed in transfected cells; host or cells: HEK293T", "T1 sequence (Q13133 1-447)": "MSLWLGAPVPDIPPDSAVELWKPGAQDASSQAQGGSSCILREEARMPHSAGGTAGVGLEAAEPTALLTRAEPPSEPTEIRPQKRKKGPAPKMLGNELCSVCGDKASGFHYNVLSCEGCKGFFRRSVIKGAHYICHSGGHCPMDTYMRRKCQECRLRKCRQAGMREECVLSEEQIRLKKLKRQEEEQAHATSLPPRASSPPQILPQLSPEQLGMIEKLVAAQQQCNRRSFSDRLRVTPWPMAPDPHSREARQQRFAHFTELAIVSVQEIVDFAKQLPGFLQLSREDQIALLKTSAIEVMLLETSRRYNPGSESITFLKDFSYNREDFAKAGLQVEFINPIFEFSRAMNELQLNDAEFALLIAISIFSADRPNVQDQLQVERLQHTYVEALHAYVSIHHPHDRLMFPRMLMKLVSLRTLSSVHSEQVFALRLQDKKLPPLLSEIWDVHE", "T1 sequence (P48443 1-463 partner)": "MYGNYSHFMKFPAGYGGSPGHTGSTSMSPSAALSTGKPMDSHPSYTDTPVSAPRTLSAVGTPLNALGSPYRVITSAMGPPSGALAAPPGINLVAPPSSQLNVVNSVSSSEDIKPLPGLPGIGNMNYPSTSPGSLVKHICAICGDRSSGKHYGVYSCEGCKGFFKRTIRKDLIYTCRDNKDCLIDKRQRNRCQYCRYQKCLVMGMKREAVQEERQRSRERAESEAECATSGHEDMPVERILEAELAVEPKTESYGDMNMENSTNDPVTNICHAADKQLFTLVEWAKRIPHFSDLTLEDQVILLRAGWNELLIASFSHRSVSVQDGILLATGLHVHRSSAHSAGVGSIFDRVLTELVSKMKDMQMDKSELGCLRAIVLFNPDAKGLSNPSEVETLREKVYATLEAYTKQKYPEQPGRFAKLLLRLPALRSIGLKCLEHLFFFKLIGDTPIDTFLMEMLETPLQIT", "experiment": "LXRE-luciferase gene reporter assay in HEK293T, LXRα", "type": "cell-based", "conditions": "LXRα; 10 µM 22(R)HC; read-out: IC50, inhibition of LXR-dependent luciferase activity stimulated by 22(R)HC", "source_text": "HEK293T were used for luciferase assays. Cells were transfected using the PolyEthylenImine (PEI) method with human retinoid-X receptor (RXRγ) and human liver-X-receptors (LXRα or LXRβ) with LXRE-Luc; RXRγ and human farnesoid X receptor (FXR) with EcRE-Luc; RXRγ and human steroid and xenobiotic X receptor (SXR) with DR4-Luc; RXRγ and human peroxisome proliferator activated receptors (PPARα, or PPARγ) with PPRE-Luc; RXRγ and human retinoic acid receptor (RARα) with DR1-Luc; human AHR and human ARNT with a DRE-Luc; human vitamin D receptor (VDR) with VDRE-Luc. Cells were transfected with plasmids encoding human glucocorticoid receptor (GR), progesterone receptor (PR), or androgen receptor (AR) with MMTV-Luc; or estrogen receptors (ERα and ERβ) with an ERE-Luc. The day after transfection with the luciferase reporter gene construct, cells were seeded in 12-well plates (50,000 cells per well). After 6 h, cells were then treated with the following ligands dissolved in ethanol: 10 nM estradiol (E2) for ERα and ERβ; 10 nM R1881 for AR; 10 nM R5020 for PR; 10 nM dexamethasone for GR; 10 µM fenofibrate for PPARα; 100 nM rosiglitazone (BRL 49653) for PPARγ; 100 nM cis-retinoic acid (cRA) for RAR; 10 nM dioxine for AHR, 10 µM rifampicine for SXR and 10 µM 22(R) hydroxycholesterol (22(R)HC) for LXRα and LXRβ. At the end of each treatment, cells were lysed in 100 μl lysis buffer (Promega). Luciferase activity was measured using the luciferase assay reagent (Promega), according to the manufacturer’s instructions. Protein concentrations were measured using the Bradford method to normalize luciferase activities. For each condition, luciferase activity was calculated from the data of three independent wells."}}, "data": [{"smiles": "CC(C)CCC[C@@H](C)[C@H]1CC[C@H]2[C@@H]3C[C@@H](NCCc4cnc[nH]4)[C@@]4(O)C[C@@H](O)CC[C@]4(C)[C@H]3CC[C@]12C", "note": "[DDA, Dendrogenin A]", "values": [{"measurement": "Cmax", "setting": "in vivo; NSG, ip", "value": "6.1 ± 0.95", "unit": "µM"}, {"measurement": "Plasma clearance", "setting": "in vivo; NSG, ip", "value": 28, "unit": "mL/min/kg"}, {"measurement": "Tmax", "setting": "in vivo; NSG, ip", "value": 2, "unit": "h"}, {"measurement": "half-life", "setting": "in vivo; NSG, ip, T1/2 absorption", "value": 19, "unit": "h"}, {"measurement": "half-life", "setting": "in vivo; NSG, ip, T1/2 elimination", "value": 0.9, "unit": "h"}, {"measurement": "Cmax", "setting": "in vivo; NSG, iv", "value": 370, "unit": "µM"}, {"measurement": "Tmax", "setting": "in vivo; NSG, iv", "value": 0.002, "unit": "h"}, {"measurement": "clearance", "setting": "in vivo; NSG, iv", "value": 27, "unit": "mL/min/kg"}, {"measurement": "half-life", "setting": "in vivo; NSG, iv, T1/2 distribution", "value": 0.1, "unit": "h"}, {"measurement": "half-life", "setting": "in vivo; NSG, iv, T1/2 elimination", "value": 0.6, "unit": "h"}, {"measurement": "Cmax", "setting": "in vivo; NSG, po", "value": 5.05, "unit": "µM"}, {"measurement": "Plasma clearance", "setting": "in vivo; NSG, po", "value": 26.2, "unit": "mL/min/kg"}, {"measurement": "Tmax", "setting": "in vivo; NSG, po", "value": 3, "unit": "h"}, {"measurement": "half-life", "setting": "in vivo; NSG, po, T1/2 absorption", "value": 43, "unit": "h"}, {"measurement": "half-life", "setting": "in vivo; NSG, po, T1/2 elimination", "value": 1, "unit": "h"}, {"measurement": "Bioavailability", "setting": "in vivo; iv", "value": 100, "unit": "% EP"}, {"measurement": "cleaved PARP, densitometry", "setting": "AML cells; 5 µM DDA + 50 µM z-VAD-fmk", "value": 1.9}, {"measurement": "cleaved casp 3, densitometry", "setting": "AML cells; 5 µM DDA + 50 µM z-VAD-fmk", "value": 0.5}, {"measurement": "cleaved PARP, densitometry", "setting": "AML cells; 5 µM DDA, without z-VAD-fmk", "value": 6.1}, {"measurement": "cleaved casp 3, densitometry", "setting": "AML cells; 5 µM DDA, without z-VAD-fmk", "value": 4.3}, {"measurement": "cleaved PARP, densitometry", "setting": "AML cells; 10 µM DDA + 50 µM z-VAD-fmk", "value": 6.1}, {"measurement": "cleaved casp 3, densitometry", "setting": "AML cells; 10 µM DDA + 50 µM z-VAD-fmk", "value": 0.8}, {"measurement": "cleaved PARP, densitometry", "setting": "AML cells; 10 µM DDA, without z-VAD-fmk", "value": 10.8}, {"measurement": "cleaved casp 3, densitometry", "setting": "AML cells; 10 µM DDA, without z-VAD-fmk", "value": 5.2}, {"measurement": "IC50", "setting": "[1]", "value": "362 ± 52", "unit": "nM"}]}]}
